Here are results for 60 molecules from patent US8252723B2, “Substituted 1-(3-pyridinyl)pyrazol-4-ylacetic acids, processes for their preparation and their use as herbicides and plant growth regulators” (Bayer CropScience AG, priority 2006, dated 2012).

For the assay, the system named is summer wheat of the cultivar 'Triso'. The assay can be described thus: Plant growth regulation test: culm stabilization of crop plants. The note with it: application rate of 30 to 300 g of active substance per hectare, treated at stage BBCH 31, culm length measured after ears had formed. The class given is in vivo. On the procedure:
With stirring, the compound of the formula (I) in question was, in the form of a water-dispersible powder, together with a surfactant (customary adjuvant at an application rate of 1 l/ha), mixed with water such that a homogenous spray liquor was formed, and applied at an application rate of 300 l of water/ha (converted).
Seeds of summer wheat of the cultivar ‘Triso’ were sown at a depth of 1 cm in plant pots and cultivated outdoors until treatment.
The plants were treated on a laboratory track sprayer with spray liquors of the test substances at macrostage 3 after having reached about 10% of the maximum longitudinal growth typical for the cultivar (stage BBCH 31) and, after the treatment, returned outdoors.
After the ears had formed, the length of the culms were measured. The culm stabilization was evaluated as a percentage of the untreated control.
Take `COC(=O)Cc1c(C=O)nn(-c2cccnc2)c1-c1ccc(Cl)cc1` [Example 2-165]: the “longitudinal growth (culm length) of summer wheat” value (“longitudinal growth (culm length)” below) is “effectively shortened”.

Turning to `COC(=O)Cc1c(C)nn(-c2cnccc2[S+](C)[O-])c1-c1ccccc1` (stereo not drawn) [Example 2-71], the “longitudinal growth (culm length)” value was “effectively shortened”.

`COC(=O)Cc1c(C)nn(-c2cccnc2)c1-c1ccc(C)cn1` [Example 2-113]: the “longitudinal growth (culm length)” value is “effectively shortened”. Then `COC(=O)Cc1c(C)nn(-c2cnccc2C)c1-c1ccc(Cl)cc1` [Example 2-25], with “effectively shortened”; and `Cc1nn(-c2cccnc2)c(-c2ccc(Cl)c(C(F)(F)F)c2)c1CC(=O)O` [Example 1-47], with “effectively shortened”. In the case of `O=C(O)Cc1c(C2CC2)nn(-c2cccnc2)c1-c1ccc(Cl)cc1` [Example 1-146], the “longitudinal growth (culm length)” value is “effectively shortened”. In the case of `Cc1nn(-c2cccnc2)c(-c2ccccc2)c1CC(=O)OC(C)C` [Example 3-36], the “longitudinal growth (culm length)” value is listed as “effectively shortened”. Then `Cc1nn(-c2cccnc2)c(-c2ccc(F)cc2)c1CC(=O)O` [Example 1-120], with “effectively shortened”. Then `COC(=O)Cc1c(C)nn(-c2cnccc2C)c1-c1ccc(Cl)c(C(F)(F)F)c1` [Example 2-48], with “effectively shortened”; and `Cc1nn(-c2cnccc2C(F)(F)F)c(-c2ccccc2)c1CC(=O)O` [Example 1-8], with “effectively shortened”.

As for `COC(=O)Cc1c(C)nn(-c2cccnc2)c1-c1cc(C)ccn1` [Example 2-136], the “longitudinal growth (culm length)” value was “effectively shortened”. Then `COC(=O)Cc1c(C)nn(-c2cnccc2C)c1-c1ccc(C)cc1` [Example 2-36], with “effectively shortened”; and `Cc1nn(-c2cccnc2)c(-c2ccc(Cl)cc2)c1CC(=O)OCCN(C)C` [Example 3-231], with “effectively shortened”. With `COC(=O)Cc1c(C)nn(-c2cccnc2)c1-c1ccc(C)cc1` [Example 2-16] the entry was “effectively shortened”; with `COC(=O)Cc1c(C#N)nn(-c2cccnc2)c1-c1ccc(Cl)cc1` [Example 2-147], “effectively shortened”; with `COC(=O)Cc1c(C)nn(-c2cccnc2)c1-c1ccc(Cl)c(Cl)c1` [Example 2-27], “effectively shortened”. With `COC(=O)Cc1c(C)nn(-c2cnccc2C)c1-c1cccc(C(F)(F)F)c1` [Example 2-19] the entry was “effectively shortened”; with `Cc1nn(-c2cccnc2)c(-c2ccccc2)c1CC(=O)OCC#CCCl` [Example 3-109], “effectively shortened”; with `COC(=O)Cc1c(C)nn(-c2cnccc2SC)c1-c1ccc(Cl)cc1` [Example 2-45], “effectively shortened”. Take `Cc1ccncc1-n1nc(C)c(CC(=O)O)c1-c1cccc(Cl)c1` [Example 1-21]: the “longitudinal growth (culm length)” value is “effectively shortened”. As to `Cc1nn(-c2cccnc2)c(-c2ccsc2)c1CC(=O)O` [Example 1-63], the “longitudinal growth (culm length)” value is “effectively shortened”. Regarding `COC(=O)Cc1c(C)nn(-c2cnccc2C)c1-c1ccc(OC)cc1` [Example 2-13], the “longitudinal growth (culm length)” value is “effectively shortened”. With `COc1ccc(-c2c(CC(=O)OCC3CC3)c(C)nn2-c2cccnc2)cn1` [Example 3-86] the entry was “effectively shortened”; with `COC(=O)Cc1c(C)nn(-c2cnccc2C)c1-c1cccs1` [Example 2-52], “effectively shortened”. `Cc1cncc(-n2nc(C)c(CC(=O)O)c2-c2ccc(Cl)cc2)c1` [Example 1-51]: the “longitudinal growth (culm length)” value was “effectively shortened”. With `C=C(Cl)COC(=O)Cc1c(C)nn(-c2cccnc2)c1-c1cccs1` [Example 3-186] the entry was “effectively shortened”; with `CCc1nn(-c2cccnc2)c(-c2ccccc2)c1CC(=O)OC` [Example 2-74], “effectively shortened”; with `COc1ccncc1-n1nc(C)c(CC(=O)O)c1-c1ccccc1` [Example 1-34], “effectively shortened”. Then `Cc1cccc(-c2c(CC(=O)O)c(C)nn2-c2cnccc2C)c1` [Example 1-38], with “effectively shortened”; and `O=C(Cc1cnn(-c2cccnc2)c1-c1ccccc1)OCC1CC1` [Example 3-100], with “effectively shortened”. For `C=C(Cl)COC(=O)Cc1c(C)nn(-c2cccnc2)c1-c1ccc(Cl)s1` [Example 3-190], the “longitudinal growth (culm length)” value is listed as “effectively shortened”. With `Cc1ccnc(-c2c(CC(=O)O)c(C)nn2-c2cccnc2)c1` [Example 1-136], the “longitudinal growth (culm length)” value is reported as “effectively shortened”. In the case of `Cc1nn(-c2cccnc2)c(-c2ccccn2)c1CC(=O)OC(C)C` [Example 3-48], the “longitudinal growth (culm length)” value was “effectively shortened”.

Consider `Cc1ccncc1-n1nc(C)c(CC(=O)O)c1-c1ccc(Cl)cc1Cl` [Example 1-23], for which the “longitudinal growth (culm length)” value was “effectively shortened”.

With `Cc1nn(-c2cccnc2)c(-c2ccc(Cl)cc2)c1CC(=O)O` [Example 1-26], the “longitudinal growth (culm length)” value is on record as “effectively shortened”. With `C#CCOC(=O)Cc1c(C)nn(-c2cccnc2)c1-c1ccccn1` [Example 3-73] the entry was “effectively shortened”. For `Cc1ccncc1-n1nc(C)c(CC(=O)O)c1-c1cccc(C(F)(F)F)c1` [Example 1-19], the “longitudinal growth (culm length)” value is given as “effectively shortened”. With `Cc1ccncc1-n1nc(C)c(CC(=O)O)c1-c1ccsc1` [Example 1-56], the “longitudinal growth (culm length)” value was “effectively shortened”. Take `COC(=O)Cc1cnn(-c2cccnc2)c1-c1ccccc1` [Example 2-72]: the “longitudinal growth (culm length)” value is “effectively shortened”. Then `COC(=O)Cc1c(C)nn(-c2cccnc2)c1-c1ccc(OC)cc1` [Example 2-14], with “effectively shortened”; and `Cc1nn(-c2cccnc2)c(-c2ccc(F)cc2)c1CC(=O)OCC1CC1` [Example 3-91], with “effectively shortened”; and `Cc1nn(-c2ccc(C(F)(F)F)nc2)c(-c2ccccc2)c1CC(=O)O` [Example 1-9], with “effectively shortened”.

With `C=C(Cl)COC(=O)Cc1c(C)nn(-c2cccnc2)c1-c1ccsc1` [Example 3-187], the “longitudinal growth (culm length)” value is listed as “effectively shortened”. With `Cc1nn(-c2cccnc2)c(-c2ccccc2)c1CC(=O)OC(C)C1CC1` (stereo not drawn) [Example 3-144] the entry was “effectively shortened”.

Consider `COC(=O)Cc1c(C)nn(-c2cccnc2)c1-c1ccc(F)cc1` [Example 2-120], for which the “longitudinal growth (culm length)” value was “effectively shortened”. Then `COC(=O)Cc1c(C)nn(-c2cccnc2)c1-c1ccc(C(F)(F)F)cc1` [Example 2-28], with “effectively shortened”; and `Cc1ncccc1-n1nc(C)c(CC(=O)O)c1-c1ccccc1` [Example 1-135], with “effectively shortened”. Then `C=C(Cl)COC(=O)Cc1c(C)nn(-c2cccnc2)c1-c1cc(C)cs1` [Example 3-189], with “effectively shortened”; and `COC(=O)Cc1c(C)nn(-c2ccc(C(F)(F)F)nc2)c1-c1ccccc1` [Example 2-9], with “effectively shortened”. Then `Cc1nn(-c2cnccc2Cl)c(-c2ccc(Cl)cc2)c1CC(=O)O` [Example 1-29], with “effectively shortened”.

As to `Cc1nn(-c2cccnc2)c(-c2ccc(O)nc2)c1CC(=O)O` [Example 1-70], the “longitudinal growth (culm length)” value was “effectively shortened”. Then `COC(=O)Cc1c(C(=O)OC)nn(-c2cccnc2)c1-c1ccccc1` [Example 2-127], with “effectively shortened”; and `COC(=O)Cc1c(C)nn(-c2cccnc2)c1-c1ccc(C(C)(C)C)cc1` [Example 2-122], with “effectively shortened”; and `C#CCOC(=O)Cc1c(C)nn(-c2cccnc2)c1-c1ccccc1` [Example 3-54], with “effectively shortened”.

For the molecule `COC(=O)Cc1c(C)nn(-c2cccnc2)c1-c1ccncc1` [Example 2-126], the “longitudinal growth (culm length)” value is on record as “effectively shortened”. With `COC(=O)Cc1c(C)nn(-c2cnccc2Cl)c1-c1ccc(Cl)cc1` [Example 2-29] the entry was “effectively shortened”; with `COC(=O)Cc1c(C)nn(-c2cnccc2C)c1-c1ccsc1` [Example 2-56], “effectively shortened”.

Regarding `Cc1nn(-c2cccnc2)c(-c2ccccc2)c1CC(=O)OCC1CC1` [Example 3-77], the “longitudinal growth (culm length)” value is “effectively shortened”. With `COC(=O)Cc1c(C)nn(-c2cnccc2C)c1-c1ccc(Cl)c(Cl)c1` [Example 2-20] the entry was “effectively shortened”. With `Cc1nn(-c2cccnc2)c(-c2ccc(Cl)cc2)c1CC(=O)OCC1CC1` [Example 3-78] the entry was “effectively shortened”.
